Three compounds from US20220226260A1, “APPLICATION OF HONOKIOL AND MAGNOLOL IN PREPARATION OF MCR-1 ENZYME INHIBITOR” (priority 2019, published 2022) can be followed below.

Read-outs that look alike come from different tables or passages of the source.

Test [1] has as its system E. coli BL21(DE3) (pET28a). Briefly: Chessboard MIC test, engineering strain not expressing MCR-1. The test is classed as cell-based, Escherichia coli. The conditions noted are these: for MIC: Escherichia coli, read-out: MIC alone; for synergistic effect with polymyxin: combination with polymyxin, strain that does not express MCR-1; for FIC: combined with polymyxin B.
For test [2], the system named is MCR-1 positive Escherichia coli isolate. Briefly: Time-kill curve test. The test is classed as cell-based. The conditions noted are these: 1×10^5 CFUs/mL. As to the method:
An overnight culture of MCR-1 positive Escherichia coli isolate is taken and adjusted to 1×10^7 colony forming units per milliliter (CFUs/mL) for use. Sterile test tubes are taken and divided into 4 groups (including blank control group, 2 μg/mL polymyxin group B group, 16 μg/mL honokiol or 32 μg/mL magnolol group, and 16 μg/mL honokiol or 32 μg/mL magnolol combined with 2 μg/mL polymyxin B group), each group is marked for 1, 3, 5 and 7 hours. 1 mL of autoclaved Lysogeny broth (LB) medium is added into each of the test tubes, and then 10 microliters (μL) of adjusted bacterial solution are added into each of the test tubes so that the concentration of bacterial solution in each of the test tubes is 1×10^5 CFUs/mL. Among them, 2 μg/mL polymyxin group B group, 16 μg/mL honokiol or 32 μg/mL magnolol group, and 16 μg/mL honokiol or 32 μg/mL magnolol combined with 2 μg/mL polymyxin B group are added with the corresponding amount of antibiotics and inhibitors respectively. Immediately after mixing, the bacterial solution of the antibiotic-free control group is coated and counted as the CFU at 0 H. After that, the bacterial solution in the corresponding test tube is taken every 1, 3, 5 and 7 hours, and the plate is coated for counting, and the time-kill curves are drawn, as shown in FIG. 1 and FIG. 2.

For test [3], the system named is MCR-1 positive Klebsiella pneumoniae. Briefly: Colony colonization experiment of mouse thigh muscle infection. The test is classed as in vivo. The conditions noted are these: BALB/C mice, subcutaneous, every 8 hours for three times, 36 hours. The method, then:
After BALB/C mice (female, about 20 […] (g)) are restrained, MCR-1 positive Klebsiella pneumoniae suspension (2×10^7 CFUs) is injected through the inner thigh to establish a mouse thigh muscle infection model.
After intramuscular injection of MCR-1 positive Klebsiella pneumoniae into the inner thigh of mice, 5 […] (mg/kg) (50 μL) of polymyxin B dissolved in sterile ultra-pure water (dd H2O), 50 mg/kg (50 μL) honokiol or magnolol dissolved in dimethyl sulfoxide (DMSO) solution, and 50 mg/kg of honokiol or magnolol combined with polymyxin B (5 mg/kg) are injected subcutaneously, while the positive control group is subcutaneously injected with 50 μL DMSO blank solvent. All groups of mice are administered subcutaneously every 8 hours for three times. After 36 hours of administration, the mice are sacrificed, and the thigh muscles are weighed, homogenized, diluted and counted.

Test [4] concerns MCR-1 positive Escherichia coli (E. coli DZ2-12R). Briefly: Chessboard MIC test, MCR-1 positive E. coli. The test is classed as cell-based. The conditions noted are these: for MIC: Escherichia coli; for antibacterial effect alone: summary for the strains of Tables 1 and 2; for reduction of the MIC value of polymyxin: combination with polymyxin, MCR-1 positive Escherichia coli. The method, then: (§1) The antibacterial activities of honokiol, magnolol, polymyxin and their combination against MCR-1 producing Escherichia coli (also referred to as MCR-1 positive Escherichia coli) and Klebsiella pneumoniae are tested by chessboard method in 96-well sterile microplates, the MIC values are determined, and the fractional inhibitory concentration (FIC) indexes are calculated. Specifically, FIC=MIC (polymyxin combined)/MIC (polymyxin alone)+MIC (honokiol/magnolol combined)/MIC (honokiol/magnolol alone).

For test [5], the system named is MCR-1 positive Klebsiella pneumoniae (K. pneumoniae ZJ02). Briefly: Chessboard MIC test, MCR-1 positive K. pneumoniae. Format: cell-based. The conditions noted are these: for MIC: Klebsiella pneumoniae; for reduction of the MIC value of polymyxin: combination with polymyxin, MCR-1 positive Klebsiella pneumoniae. The method, then: as §1
Test [6] relates to MCR-1 engineering bacteria E. coli BL21(DE3) (pET28a-mcr-1). Briefly: Chessboard MIC test, MCR-1 engineering bacteria. The test is classed as cell-based, Escherichia coli. Conditions: for MIC: Escherichia coli, read-out: MIC alone; for synergistic effect with polymyxin: combination with polymyxin, strain expressing MCR-1; for FIC: combined with polymyxin B. The method, then: as §1

Where [7] appears, read: 50 mg/kg combined with polymyxin B (5 mg/kg).
The mark [8] stands for this setting: alone (honokiol or magnolol 50 mg/kg, polymyxin B 5 mg/kg).
[9] abbreviates: combined with polymyxin B, E. coli DZ2-12R.
The mark [10] stands for this setting: combined with polymyxin B, K. pneumoniae ZJ02.
Setting [11] is: E. coli BL21(DE3) (pET28a-mcr-1).

Take `C=CCc1ccc(O)c(-c2ccc(O)c(CC=C)c2)c1` [Honokiol, honokiol]: the MIC in test [1] is more than 512 µg/mL; in test [4] (read-out: MIC alone), more than 512 µg/mL; in test [4] (combined with polymyxin B, E. coli DZ2-12R, read-out: MIC co-application (honokiol/magnolol)), 32 µg/mL; in test [5] (read-out: MIC alone), more than 512 µg/mL; in test [5] (combined with polymyxin B, K. pneumoniae ZJ02, read-out: MIC co-application (honokiol/magnolol)), 32 µg/mL; in test [6] it was more than 512 µg/mL. Moreover, the “synergistic effect with polymyxin” value in test [1] is “does not have any synergistic effect”; in test [6] it was “obvious synergistic effect”. Moreover, the FIC in test [1] (E. coli BL21(DE3) (pET28a)) was determined as 0.5625; in test [4] (setting [9]), 0.1875; in test [5] (setting [10]) it was 0.125; in test [6] (setting [11]) it was 0.125. Moreover, the “time to completely kill MCR-1 positive Escherichia coli” value in test [2] (16 μg/mL honokiol combined with 2 μg/mL polymyxin B) is not above 1 h. Besides, the “number of bacterial colonization in mouse thigh muscle” value (“number of bacterial colonization” for short) in test [3] (setting [7]) is given as “significantly reduced”; in test [3] (setting [8]), “no significant effect”. Moreover, the antibacterial effect alone result in test [4] (alone) is listed as “no antibacterial effect”. The “reduction of the MIC value of polymyxin” value stood at 8 fold in test [4] and 16 fold in test [5].

As to `C=CCc1ccc(O)c(-c2cc(CC=C)ccc2O)c1` [Magnolol, magnolol], the MIC in test [1], in test [4] (read-out: MIC alone), in test [5] (read-out: MIC alone) and in test [6] was more than 512 µg/mL in each case. Moreover, the “synergistic effect with polymyxin” value in test [1] is given as “does not have any synergistic effect”; in test [6], “obvious synergistic effect”. For the same compound, the FIC in test [1] (E. coli BL21(DE3) (pET28a)) is given as 1.0625; in test [4] (setting [9]), 0.3125; in test [5] (setting [10]), 0.3125; in test [6] (setting [11]), 0.1875. Also, the “time to completely kill MCR-1 positive Escherichia coli” value in test [2] (32 μg/mL magnolol combined with 2 μg/mL polymyxin B) was not above 3 h. Also, the “number of bacterial colonization” value in test [3] (setting [7]) is listed as “significantly reduced”; in test [3] (setting [8]), “no significant effect”. Moreover, the antibacterial effect alone entry in test [4] (alone) was “no antibacterial effect”. For the same compound, the “reduction of the MIC value of polymyxin” value in test [4] and in test [5] was 4 fold each time.

For the compound Polymyxin B [reference compound], the MIC alone in test [1] (alone, E. coli BL21(DE3) (pET28a)) was 1 µg/mL; in test [4] (alone, E. coli DZ2-12R), 8 µg/mL; in test [5] (alone, K. pneumoniae ZJ02), 32 µg/mL; in test [6] (alone, E. coli BL21(DE3) (pET28a-mcr-1)) it was 8 µg/mL. In addition, the “MIC Polymyxin B co-application” value in test [1] (polymyxin B combined with honokiol, E. coli BL21(DE3) (pET28a)) came to 0.5 µg/mL; in test [1] (polymyxin B combined with magnolol, E. coli BL21(DE3) (pET28a)), 1 µg/mL; in test [4] (polymyxin B combined with honokiol, E. coli DZ2-12R) it was 1 µg/mL; in test [4] (polymyxin B combined with magnolol, E. coli DZ2-12R) it was 2 µg/mL; in test [5] (polymyxin B combined with honokiol, K. pneumoniae ZJ02), 2 µg/mL; in test [5] (polymyxin B combined with magnolol, K. pneumoniae ZJ02), 8 µg/mL. Also, the “MIC Polymyxin B co-application” value in test [6] (polymyxin B combined with honokiol, E. coli BL21(DE3) (pET28a-mcr-1)) turned out to be 0.5 µg/mL; in test [6] (polymyxin B combined with magnolol, E. coli BL21(DE3) (pET28a-mcr-1)), 1 µg/mL. Further, in test [3] (setting [8]), the “number of bacterial colonization” value was “no significant effect”.
